Experimental data published in patent US12358870B2, “Solid dispersions and pharmaceutical compositions comprising a substituted indane and methods for the preparation and use thereof” (Peloton Therapeutics Inc., priority 2018, dated 2025).

Legend:
[1] = Solubility in acetone and acetone/H2O mixtures, 30 minutes; conditions: room temperature
Method: The first measurement was conducted at room temperature over 30 minutes with mixing completed by spinning in centrifuge tubes.

[2] = Solubility in acetone/H2O combinations, equilibrated 48 hours; type: physicochemical; conditions: 48 hours at room temperature
Excerpt: The second measurement was completed to further evaluate acetone/H2O combinations in 1% H2O increments.

[3] = Glass transition temperature (Tg) by mDSC; type: physicochemical; conditions: neat compound, Example 1
Method: MDSC was performed using a TA Instruments Q2000 differential scanning calorimeter equipped with a TA instruments Refrigerated Cooling System 90. MDSC was used to measure glass transition temperature (Tg) and melting temperature (Tm), if present. The temperature range was adjusted from 0-250° C. with a heating rate of 1.5° C./min. The scanning mode was modulated where the modulation frequency was 60 seconds and modulation amplitude 1° C.
The effect of relative humidity on the Tg was examined for the solid dispersion. The solid dispersion was exposed to humidity levels of 33%, 50% or 75% for 24 hours. Following exposure, the samples were capped in hermetically sealed DSC pans for analysis. […] As shown, the Tg dropped to 71° C. and 51° C. when exposed to 33% and 75% RH, respectively. […] The solid dispersion was packaged in packaging that maintains RH values <33% for long-term storage.

[4] = Non-sink gastric transfer dissolution test (SGF to FaSSIF); type: physicochemical
Method: The dissolution performance of the solid dispersions was tested in a non-sink dissolution test. […] During the test, samples were transferred from SGF [theoretical Cmax=2000 μgA/mL] to FaSSIF [theoretical Cmax=1000 μgA/mL].

[5] = Suspension stability monitored by SGF/FaSSIF dissolution test; type: physicochemical
Method: The performance of each solid dispersion suspension was monitored at 4 and 24 hours after preparation using the SGF/FaSSIF dissolution test as the comparative metric.
The suspension stability dissolution profiles for the solid dispersion formulations held for 4 hours or 24 hours can be found in Tables 8 and 9, respectively. The dissolution tests were dosed at 2.0 mgA/mL in SGF and upon transfer into FaSSIF were reduced to 1.0 mgA/mL. It is expected that the solid dispersion suspensions can be held for up to 4 hours prior to dosing.

VEGF = VEGF ELISA Assay in 786-O cells; type: cell-based; conditions: Homo sapiens, 786-0; VEGF concentration in 786-O cell culture medium
Method: Each concentration was plated in duplicate. About 20 hours later, medium was removed by suction and each well was supplied with 180 μL of growth medium. About 20 μl freshly-made 10× compound stocks were added to each well. […] The EC50 was calculated by GraphPad Prism using the dose-response-inhibition (four parameter) equation. The cell-seeded plate was then subjected to CellTiter-Glo luminescence cell viability assay (Promega) by adding 50 μL of Celltiter Glo reagent into each well and shaking the plate for 8 minutes at 550 rpm (Thermomixer R, Eppendorf) then the luminescence signal immediately read in a plate reader (3 second delay, 0.5 second/well integration time, Synergy 2 multi Detection Microplate reader).

786-O-Hif-Luc cells = assay: Luciferase Assay; type: cell-based; conditions: luciferase activity after about 24 hours
Method: A pool of infected cells were then selected against 2 μg/mL of puromycin (P8833, Sigma) for 10 days followed by limited dilution to select single clones.
Each concentration was tested in triplicate. After about 24 hours, luciferase activity was determined using ONE-Glo Luciferase Assay Reagent (E6110, Promega) following the manufacturer's recommended procedure.

[6] = Solubility and sink factor in dissolution media at pH 2 and 6.8; conditions: for Sink Factor (10 mg) / Sink Factor (40 mg): 900 mL media
[7] = Example 6, lipid vehicle capsules
[8] = pH 2.0 (0.01N HCl) w/0.5% Tween 80
[9] = pH 2.0 (0.01N HCl) w/1% Tween 80
[10] = pH 6.8 (50 mM NaH2PO4) w/0.5% CTAB
[11] = pH 6.8 (50 mM NaH2PO4) w/0.5% SLS
[12] = pH 6.8 (50 mM NaH2PO4) w/0.5% Tween 80
[13] = pH 6.8 (50 mM NaH2PO4) w/1% CTAB
[14] = pH 6.8 (50 mM NaH2PO4) w/1% SLS
[15] = pH 6.8 (50 mM NaH2PO4) w/1% Tween 80

Work on `CS(=O)(=O)c1ccc(Oc2cc(F)cc(C#N)c2)c2c1[C@H](O)[C@H](F)[C@@H]2F` [compound of Formula (I), 3-(((1S,2S,3R)-2,3-difluoro-1-hydroxy-7-(methylsulfonyl)-2,3-dihydro-1H-inden-4-yl)oxy)-5-fluorobenzonitrile] yielded a solubility ([1]; 87.5/12.5% Acetone/H2O) of 5.8 wt. %, a solubility ([1]; 90/10% Acetone/H2O) of 7.1 wt. % and a solubility ([1]; 92.5/7.5% Acetone/H2O) of 6.7 wt. %. It also gave a solubility ([1]; 95/5% Acetone/H2O) of 7.5 wt. %, a solubility ([1]; 97.5/2.5% Acetone/H2O) of 7.3 wt. % and a solubility ([1]; 100% Acetone) of 6.2 wt. %. For the same compound, the solubility ([2]; 95/5% Acetone/H2O) was 6.6 wt. %, the solubility ([2]; 96/4% Acetone/H2O) was 6.3 wt. % and the solubility ([2]; 97/3% Acetone/H2O) was 6.7 wt. %. It also gave a solubility ([2]; 98/2% Acetone/H2O) of 6.6 wt. %, a solubility ([2]; 99/1% Acetone/H2O) of 6.0 wt. % and a solubility ([2]; 100% Acetone) of 6.0 wt. %. For the same compound, the “glass transition temperature (Tg)” value [3] was 79.9 °C, the “AUC Enhancement” value ([4]; Example 2, AUC solid dispersion/AUC crystalline compound of Formula (I)) was 1 and the “Cmax GB” value ([4]; Example 2, SGF, 30 minutes) was 12 μgA/mL. The “Cmax FaSSIF” value ([4]; Example 2, after transfer to FaSSIF) was 16 μgA/mL, the “AUC FaSSIF” value ([4]; Example 2, post gastric transfer) was 2600 μgA/mL*min and the “Cmax GB” value ([4]; Example 6, capsules, 5 wt. % compound in lipid vehicle) was 14 μgA/mL. For the same compound, the “AUC FaSSIF” value [4, 7] was 3021 μgA/mL*min, the “Cmax FaSSIF” value [4, 7] was 19 μgA/mL and the “AUC Enhancement” value ([4]; Example 6, versus bulk crystalline drug) was 1.0. For the same compound, the “Cmax GB” value ([5]; 10 mgA/mL suspension in 1 wt. % 1:1 methyl-cellulose:Tween 80 held 4 hours) was 18.3 μgA/mL, the “Cmax GB” value ([5]; 10 mgA/mL suspension in 1 wt. % 1:1 methyl-cellulose:Tween 80 held 24 hours) was 35.8 μgA/mL and the “AUC Enhancement” value ([5]; suspension held 4 hours) was 1.0. For the same compound, the “AUC FaSSIF” value ([5]; suspension held 4 hours) was 2600 μgA/mL*min, the “Cmax FaSSIF” value ([5]; suspension held 4 hours) was 15.5 μgA/mL and the “AUC Enhancement” value ([5]; suspension held 24 hours) was 1.0. For the same compound, the “AUC FaSSIF” value ([5]; suspension held 24 hours) was 5600 μgA/mL*min, the “Cmax FaSSIF” value ([5]; suspension held 24 hours) was 33.0 μgA/mL and the EC50 (VEGF) was less than 0.05 µM. The EC50 (786-O-Hif-Luc cells) was less than 0.05 µM, the solubility ([6]; pH 2) was 0.1 mg/mL and the “Sink Factor (10 mg)” value ([6]; pH 2.0 (0.01N HCl) w/0.5% CTAB) was 5.4. The “Sink Factor (40 mg)” value ([6]; pH 2.0 (0.01N HCl) w/0.5% CTAB) was 1.4, the “Sink Factor (10 mg)” value ([6]; pH 2.0 (0.01N HCl) w/0.5% SLS) was 3.6 and the “Sink Factor (40 mg)” value ([6]; pH 2.0 (0.01N HCl) w/0.5% SLS) was 0.9. For the same compound, the “Sink Factor (10 mg)” value [6, 8] was 1.8, the “Sink Factor (40 mg)” value [6, 8] was 0.5 and the “Sink Factor (10 mg)” value ([6]; pH 2.0 (0.01N HCl) w/1% CTAB) was 9. For the same compound, the “Sink Factor (40 mg)” value ([6]; pH 2.0 (0.01N HCl) w/1% CTAB) was 2.3, the “Sink Factor (10 mg)” value ([6]; pH 2.0 (0.01N HCl) w/1% SLS) was 6.3 and the “Sink Factor (40 mg)” value ([6]; pH 2.0 (0.01N HCl) w/1% SLS) was 1.6. For the same compound, the “Sink Factor (10 mg)” value [6, 9] was 1.8, the “Sink Factor (40 mg)” value [6, 9] was 0.5 and the “Sink Factor (10 mg)” value ([6]; pH 2.0 (0.01N HCl)) was 0.9. The “Sink Factor (40 mg)” value ([6]; pH 2.0 (0.01N HCl)) was 0.2, the solubility ([6]; pH 2, aqueous with cosolvent or surfactant or cyclodextrin, thermodynamic from solid, Solubility) was 0.06 mg/mL and the solubility ([6]; pH 2, aqueous with cosolvent or surfactant or cyclodextrin, thermodynamic from solid, Solubility, pH 2.0 (0.01N HCl) w/0.5% SLS) was 0.04 mg/mL. For the same compound, the solubility ([6]; pH 2, aqueous with cosolvent or surfactant or cyclodextrin, thermodynamic from solid, Solubility, pH 2.0 (0.01N HCl) w/0.5% Tween 80) was 0.02 mg/mL, the solubility ([6]; pH 2, aqueous with cosolvent or surfactant or cyclodextrin, thermodynamic from solid, Solubility, pH 2.0 (0.01N HCl) w/1% SLS) was 0.07 mg/mL and the solubility ([6]; pH 2, aqueous with cosolvent or surfactant or cyclodextrin, thermodynamic from solid, Solubility, pH 2.0 (0.01N HCl) w/1% Tween 80) was 0.02 mg/mL. The solubility ([6]; pH 2, simulated gastric fluid, thermodynamic from solid, Solubility, pH 2.0 (0.01N HCl)) was 0.01 mg/mL, the “Sink Factor (10 mg)” value [6, 10] was 6.3 and the “Sink Factor (40 mg)” value [6, 10] was 1.6. For the same compound, the “Sink Factor (10 mg)” value [6, 11] was 3.6, the “Sink Factor (40 mg)” value [6, 11] was 0.9 and the “Sink Factor (10 mg)” value [6, 12] was 1.8. The “Sink Factor (40 mg)” value [6, 12] was 0.5, the “Sink Factor (10 mg)” value [6, 13] was 9.9 and the “Sink Factor (40 mg)” value [6, 13] was 2.5. For the same compound, the “Sink Factor (10 mg)” value [6, 14] was 6.3, the “Sink Factor (40 mg)” value [6, 14] was 1.6 and the “Sink Factor (10 mg)” value [6, 15] was 1.8. For the same compound, the “Sink Factor (40 mg)” value [6, 15] was 0.5, the “Sink Factor (10 mg)” value ([6]; pH 6.8 (50 mM NaH2PO4)) was 0.9 and the “Sink Factor (40 mg)” value ([6]; pH 6.8 (50 mM NaH2PO4)) was 0.2. The solubility ([6]; pH 6.8, aqueous buffer, thermodynamic from solid, Solubility, pH 6.8 (50 mM NaH2PO4)) was 0.01 mg/mL, the solubility ([6]; pH 6.8, aqueous with cosolvent or surfactant or cyclodextrin, thermodynamic from solid, Solubility, pH 6.8 (50 mM NaH2PO4) w/0.5% CTAB) was 0.07 mg/mL and the solubility ([6]; pH 6.8, aqueous with cosolvent or surfactant or cyclodextrin, thermodynamic from solid, Solubility, pH 6.8 (50 mM NaH2PO4) w/0.5% SLS) was 0.04 mg/mL. It also gave a solubility ([6]; pH 6.8, aqueous with cosolvent or surfactant or cyclodextrin, thermodynamic from solid, Solubility, pH 6.8 (50 mM NaH2PO4) w/0.5% Tween 80) of 0.02 mg/mL, a solubility ([6]; pH 6.8, aqueous with cosolvent or surfactant or cyclodextrin, thermodynamic from solid, Solubility, pH 6.8 (50 mM NaH2PO4) w/1% CTAB) of 0.11 mg/mL and a solubility ([6]; pH 6.8, aqueous with cosolvent or surfactant or cyclodextrin, thermodynamic from solid, Solubility, pH 6.8 (50 mM NaH2PO4) w/1% SLS) of 0.07 mg/mL. It also gave a solubility ([6]; pH 6.8, aqueous with cosolvent or surfactant or cyclodextrin, thermodynamic from solid, Solubility, pH 6.8 (50 mM NaH2PO4) w/1% Tween 80) of 0.02 mg/mL.
